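Five compound concentrations were applied to cells in 96-well plates for 48 hours; endpoints were derived by simple linear interpolation of the resulting dose-response curve. Definition used: TGI = concentration required for complete inhibition of growth.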
Assays:
Assay in all cases: NCI tumour cell line growth inhibition, 48 h
786-0 renal = test system: 786-0 renal
A498 renal = test system: A498 renal
A549 NSCLC = test system: A549 NSCLC
ACHN renal = test system: ACHN renal
BT-549 breast = test system: BT-549 breast
CAKI-1 renal = test system: CAKI-1 renal
CCRF-CEM leukemia = test system: CCRF-CEM leukemia
COLO 205 colon = test system: COLO 205 colon
DU-145 prostate = test system: DU-145 prostate
EKVX NSCLC = test system: EKVX NSCLC
HCC-2998 colon = test system: HCC-2998 colon
HCT-116 colon = test system: HCT-116 colon
HCT-15 colon = test system: HCT-15 colon
HL-60(TB) leukemia = test system: HL-60(TB) leukemia
HOP-62 NSCLC = test system: HOP-62 NSCLC
HOP-92 NSCLC = test system: HOP-92 NSCLC
HS 578T breast = test system: HS 578T breast
HT29 colon = test system: HT29 colon
IGROV1 ovarian = test system: IGROV1 ovarian
K-562 leukemia = test system: K-562 leukemia
KM12 colon = test system: KM12 colon
LOX IMVI melanoma = test system: LOX IMVI melanoma
M14 melanoma = test system: M14 melanoma
MALME-3M melanoma = test system: MALME-3M melanoma
MCF7 breast = test system: MCF7 breast
MDA-MB-231 breast = test system: MDA-MB-231 breast
MDA-MB-435 = test system: MDA-MB-435
MDA-N = test system: MDA-N
MOLT-4 leukemia = test system: MOLT-4 leukemia
NCI-H226 lung = test system: NCI-H226 lung
NCI-H23 lung = test system: NCI-H23 lung
NCI-H460 lung = test system: NCI-H460 lung
NCI-H522 lung = test system: NCI-H522 lung
NCI/ADR-RES ovarian = test system: NCI/ADR-RES ovarian
OVCAR-3 ovarian = test system: OVCAR-3 ovarian
OVCAR-4 ovarian = test system: OVCAR-4 ovarian
OVCAR-5 ovarian = test system: OVCAR-5 ovarian
OVCAR-8 ovarian = test system: OVCAR-8 ovarian
PC-3 prostate = test system: PC-3 prostate
RPMI-8226 leukemia = test system: RPMI-8226 leukemia
RXF 393 renal = test system: RXF 393 renal
SF-268 CNS = test system: SF-268 CNS
SF-295 CNS = test system: SF-295 CNS
SF-539 CNS = test system: SF-539 CNS
SK-MEL-2 melanoma = test system: SK-MEL-2 melanoma
SK-MEL-28 melanoma = test system: SK-MEL-28 melanoma
SK-MEL-5 melanoma = test system: SK-MEL-5 melanoma
SK-OV-3 ovarian = test system: SK-OV-3 ovarian
SN12C renal = test system: SN12C renal
SNB-19 CNS = test system: SNB-19 CNS
SNB-75 CNS = test system: SNB-75 CNS
SW-620 colon = test system: SW-620 colon
T-47D breast = test system: T-47D breast
TK-10 renal = test system: TK-10 renal
U251 CNS = test system: U251 CNS
UACC-257 melanoma = test system: UACC-257 melanoma
UACC-62 melanoma = test system: UACC-62 melanoma
UO-31 renal = test system: UO-31 renal
SR leukemia = test system: SR leukemia

Measured: TGI

O=c1oc2ccccc2c(O)c1Cc1cccc(Cc2c(O)c3ccccc3oc2=O)c1
not listed: SR leukemia
> 100 µM: all other assays above

Cc1cc(O)c2c(c1)C(=O)C(c1c(C)cc3c(c1O)C(=O)C1OC1C3=O)=CC2=O (configuration not stated)
18.2 µM: OVCAR-8 ovarian
3.96 µM: MALME-3M melanoma
4.16 µM: 786-0 renal
0.0151 µM: HL-60(TB) leukemia
2.75 µM: MDA-N
11.3 µM: UACC-257 melanoma
3.36 µM: TK-10 renal
3.52 µM: RPMI-8226 leukemia
12.1 µM: MCF7 breast
38.7 µM: SK-OV-3 ovarian
10.2 µM: SF-539 CNS
32.8 µM: NCI-H226 lung
6.32 µM: BT-549 breast
25.8 µM: NCI-H460 lung
5.87 µM: LOX IMVI melanoma | OVCAR-3 ovarian
2.36 µM: ACHN renal
40.1 µM: SR leukemia
24.6 µM: SK-MEL-2 melanoma
12.5 µM: EKVX NSCLC
7.54 µM: SW-620 colon
2.11 µM: CAKI-1 renal | HOP-92 NSCLC
14.3 µM: A498 renal
3.05 µM: HCT-15 colon
3.21 µM: HCT-116 colon
> 50.7 µM: SNB-19 CNS
32.6 µM: SF-295 CNS
22.8 µM: NCI-H23 lung
20.6 µM: U251 CNS
> 23.1 µM: NCI/ADR-RES ovarian
1.4 µM: NCI-H522 lung
5.53 µM: SK-MEL-28 melanoma
> 100 µM: T-47D breast
11.2 µM: SN12C renal
28.8 µM: KM12 colon
26.2 µM: SF-268 CNS
3.77 µM: UO-31 renal
26.3 µM: HOP-62 NSCLC
4.14 µM: MDA-MB-231 breast
28.1 µM: SNB-75 CNS
7.71 µM: MDA-MB-435
17.2 µM: HCC-2998 colon
3.11 µM: RXF 393 renal
> 47.3 µM: DU-145 prostate
8.12 µM: M14 melanoma
43.1 µM: A549 NSCLC
4.77 µM: UACC-62 melanoma
13 µM: OVCAR-5 ovarian
19.7 µM: SK-MEL-5 melanoma
98.9 µM: HS 578T breast
25.1 µM: PC-3 prostate
11.7 µM: HT29 colon
11.1 µM: OVCAR-4 ovarian
23.9 µM: IGROV1 ovarian

Cc1cccc(C(O)c2cccnc2)c1O (configuration not stated)
not listed: 786-0 renal | A498 renal | HOP-92 NSCLC | M14 melanoma | OVCAR-4 ovarian | SK-MEL-2 melanoma | SK-OV-3 ovarian
> 100 µM: all other assays above

Cc1cccc2c1C(=O)[C@@](C)([C@]1(C)Nc3cccc(C)c3C1=O)N2
7.9 µM: HL-60(TB) leukemia
not listed: HOP-92 NSCLC | TK-10 renal
> 100 µM: all other assays above
